Reference: US8188078B2 (Sanofi-Aventis, priority 2007, dated 2012)

Tests used:
RON = RON (Homo sapiens, UniProt Q04912); assay: Test B: HTRF RON test in 96-well format; format: biochemical
How it was run: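 RON 5 nM pre-incubated 30 min at RT with compound (0.17 nM–10 μM final, 3% DMSO) in MOPS 10 mM pH 7, DTT, Tween 20. Reaction with biotinylated poly-(GAT) 1 μg/ml, ATP 10 μM, MgCl2 5 mM, 30 min RT. Eu-anti-pTyr/streptavidin-XL665 HTRF, 665/620 ratio gives % inhibition, IC50.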

MET = molecular target: T1, MET (Homo sapiens, UniProt P08581); assay: Test C: inhibition of the autophosphorylation of MET, ELISA technique (pppY1230, 1234, 1235), MKN45 cells; format: cell-based
T1 construct: endogenous in cells; host or cells: MKN45 cells
How it was run: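 MKN45 cells adhered 24 h, then treated 1 h with compound at 6 concentrations in duplicate, final range 10000 to 30 nM. Lysates assayed by phospho-MET (pY1230/1234/1235) sandwich ELISA with HRP chromogen read at 450 nm.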

MKN45 cells = assay: Test D: cellular proliferation by 14C-thymidine pulse, MKN45 cells; format: cell-based; settings: cell line not stated (HCT116 or MKN45)
How it was run: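 MKN45 cells (7500/well, RPMI + 10% foetal calf serum) treated with 10 concentrations, 10000 to 0.3 nM in 3-fold steps, duplicate. 14C-thymidine (0.1 μCi/well) added at 72 h; incorporation counted after 24 h pulse, 96 h total treatment.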

[1] = Homo sapiens, MKN-45, cellular proliferation by 14C-thymidine pulse

T1 sequence (P08581 25-1390): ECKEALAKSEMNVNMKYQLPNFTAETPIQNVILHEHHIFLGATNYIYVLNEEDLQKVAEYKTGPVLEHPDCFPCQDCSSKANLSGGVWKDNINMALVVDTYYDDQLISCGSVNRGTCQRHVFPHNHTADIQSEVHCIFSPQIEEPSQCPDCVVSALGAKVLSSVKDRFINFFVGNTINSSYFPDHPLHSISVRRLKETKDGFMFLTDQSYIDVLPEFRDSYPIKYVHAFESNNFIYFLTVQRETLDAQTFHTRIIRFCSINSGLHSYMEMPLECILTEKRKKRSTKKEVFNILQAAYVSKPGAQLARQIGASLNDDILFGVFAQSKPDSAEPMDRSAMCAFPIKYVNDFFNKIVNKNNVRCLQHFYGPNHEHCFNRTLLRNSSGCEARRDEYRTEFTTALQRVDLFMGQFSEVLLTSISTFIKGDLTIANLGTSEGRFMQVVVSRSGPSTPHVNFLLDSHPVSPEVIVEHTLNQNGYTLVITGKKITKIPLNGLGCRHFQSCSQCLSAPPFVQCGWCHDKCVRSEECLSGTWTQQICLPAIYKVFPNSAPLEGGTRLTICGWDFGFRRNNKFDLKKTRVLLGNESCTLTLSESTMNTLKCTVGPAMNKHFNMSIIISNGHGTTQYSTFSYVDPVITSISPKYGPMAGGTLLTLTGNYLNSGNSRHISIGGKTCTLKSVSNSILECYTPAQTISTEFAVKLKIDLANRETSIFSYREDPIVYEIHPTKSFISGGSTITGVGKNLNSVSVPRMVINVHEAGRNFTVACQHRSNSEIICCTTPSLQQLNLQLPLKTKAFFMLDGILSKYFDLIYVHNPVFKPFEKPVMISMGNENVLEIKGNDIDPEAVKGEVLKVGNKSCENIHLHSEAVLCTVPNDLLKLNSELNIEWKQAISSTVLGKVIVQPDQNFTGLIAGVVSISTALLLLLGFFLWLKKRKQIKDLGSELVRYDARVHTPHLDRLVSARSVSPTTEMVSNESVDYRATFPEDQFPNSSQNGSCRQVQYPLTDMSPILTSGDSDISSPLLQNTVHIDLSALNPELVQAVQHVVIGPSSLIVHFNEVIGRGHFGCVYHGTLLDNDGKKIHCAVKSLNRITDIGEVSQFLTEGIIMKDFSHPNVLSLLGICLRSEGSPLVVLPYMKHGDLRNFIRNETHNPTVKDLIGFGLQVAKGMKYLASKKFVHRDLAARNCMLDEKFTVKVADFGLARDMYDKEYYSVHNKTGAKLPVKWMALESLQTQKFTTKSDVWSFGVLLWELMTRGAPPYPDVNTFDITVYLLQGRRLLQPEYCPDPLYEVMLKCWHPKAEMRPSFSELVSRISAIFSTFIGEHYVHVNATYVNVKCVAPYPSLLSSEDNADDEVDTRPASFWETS
RON, sequence (Q04912 25-1400): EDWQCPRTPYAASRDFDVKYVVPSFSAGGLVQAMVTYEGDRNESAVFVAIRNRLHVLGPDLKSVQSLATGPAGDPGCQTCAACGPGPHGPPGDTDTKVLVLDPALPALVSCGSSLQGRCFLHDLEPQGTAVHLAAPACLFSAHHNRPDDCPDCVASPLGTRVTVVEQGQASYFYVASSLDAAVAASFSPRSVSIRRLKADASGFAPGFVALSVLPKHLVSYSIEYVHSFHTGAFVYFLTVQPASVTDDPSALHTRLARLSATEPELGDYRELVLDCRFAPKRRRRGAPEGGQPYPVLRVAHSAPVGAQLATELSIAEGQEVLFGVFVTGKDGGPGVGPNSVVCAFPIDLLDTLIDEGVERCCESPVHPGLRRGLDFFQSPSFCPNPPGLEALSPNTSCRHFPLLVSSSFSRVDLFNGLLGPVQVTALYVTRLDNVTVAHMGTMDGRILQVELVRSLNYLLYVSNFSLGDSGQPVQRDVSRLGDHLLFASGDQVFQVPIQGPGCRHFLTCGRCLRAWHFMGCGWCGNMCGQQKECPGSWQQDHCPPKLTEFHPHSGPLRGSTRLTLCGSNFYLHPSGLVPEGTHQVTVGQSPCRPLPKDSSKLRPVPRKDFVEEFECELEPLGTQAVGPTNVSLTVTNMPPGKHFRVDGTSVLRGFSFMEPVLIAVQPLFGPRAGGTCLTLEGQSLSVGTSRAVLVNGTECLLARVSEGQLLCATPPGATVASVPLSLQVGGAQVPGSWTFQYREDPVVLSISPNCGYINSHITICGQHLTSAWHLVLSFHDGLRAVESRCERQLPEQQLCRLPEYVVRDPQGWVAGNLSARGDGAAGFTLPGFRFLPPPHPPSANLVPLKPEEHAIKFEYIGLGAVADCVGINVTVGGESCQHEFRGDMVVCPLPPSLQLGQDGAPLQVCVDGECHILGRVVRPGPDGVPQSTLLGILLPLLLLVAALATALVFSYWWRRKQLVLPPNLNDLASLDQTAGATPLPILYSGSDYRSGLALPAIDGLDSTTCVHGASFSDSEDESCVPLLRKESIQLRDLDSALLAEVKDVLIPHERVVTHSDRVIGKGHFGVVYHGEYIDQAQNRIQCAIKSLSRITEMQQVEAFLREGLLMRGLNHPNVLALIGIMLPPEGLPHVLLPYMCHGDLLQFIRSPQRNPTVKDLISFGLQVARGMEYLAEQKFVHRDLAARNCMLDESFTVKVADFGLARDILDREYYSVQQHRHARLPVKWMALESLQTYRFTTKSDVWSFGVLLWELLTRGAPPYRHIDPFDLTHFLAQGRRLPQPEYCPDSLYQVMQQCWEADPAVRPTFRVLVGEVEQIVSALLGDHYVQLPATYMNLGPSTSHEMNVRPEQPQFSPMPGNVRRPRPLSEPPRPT

Row | IC50 (RON) | IC50 (MET) | IC50 (MKN45 cells; [1]) | IC50 (MKN45 cells; cellular proliferation by 14C-thymidine pulse) | SMILES
1 | 500 to 10000 nM | 500 to 10000 nM | > 10000 nM |  | CC(Oc1ccc2nc(NC(=O)NCCCN3CCN(Cc4c(F)cccc4Cl)CC3)sc2c1)c1c(Cl)ccc(F)c1Cl (stereo not drawn) [Example 46, 1-{3-[4-(2-chloro-6-fluorobenzyl)piperazin-1-yl]propyl}-3-{6-[1-(2,6-dichloro-3-fluorophenyl)ethoxy]-1,3-benzothiazol-2-yl}urea]
2 | 500 to 10000 nM | 500 to 10000 nM | 500 to 10000 nM |  | CC(Oc1ccc2nc(NC(=O)CCCN3CCOCC3)sc2c1)c1c(Cl)ccc(F)c1Cl (stereo not drawn) [Example 65, N-{6-[1-(2,6-dichloro-3-fluorophenyl)ethoxy]-1,3-benzothiazol-2-yl}-4-(morpholin-4-yl)butanamide]
3 | < 500 nM | < 500 nM | < 500 nM |  | CCN1CCN(CCNC(=O)Nc2nc3cc(F)c(OC(C)c4c(Cl)ccc(F)c4Cl)cc3s2)CC1 (single isomer, unassigned) [Example 101, 1-{6-[(1R*)-1-(2,6-dichloro-3-fluorophenyl)ethoxy]-5-fluoro-1,3-benzothiazol-2-yl}-3-[2-(4-ethylpiperazin-1-yl)ethyl]urea]
4 | 500 to 10000 nM | 500 to 10000 nM | 500 to 10000 nM |  | O=C(NCCN1CCOCC1)Nc1nc2ccc(OCc3c(Cl)cccc3Cl)cc2s1 [Example 10, 1-{6-[(2,6-dichlorobenzyl)oxy]-1,3-benzothiazol-2-yl}-3-(2-morpholin-4-ylethyl)urea]
5 | 500 to 10000 nM | 500 to 10000 nM | > 10000 nM |  | CC(Oc1ccc2nc(NC(=O)NCCN3CCC(Cc4ccccc4)CC3)sc2c1)c1c(Cl)ccc(F)c1Cl (stereo not drawn) [Example 34, 1-[2-(4-benzylpiperidin-1-yl)ethyl]-3-{6-[1-(2,6-dichloro-3-fluorophenyl)ethoxy]-1,3-benzothiazol-2-yl}urea]
6 | 500 to 10000 nM | 500 to 10000 nM | 500 to 10000 nM |  | Cc1ccc(F)c(C(C)Oc2ccc3nc(NC(=O)NCCN4CCOCC4)sc3c2)c1F (stereo not drawn) [Example 123, 1-{6-[1-(2,6-difluoro-3-methylphenyl)ethoxy]-1,3-benzothiazol-2-yl}-3-[2-(morpholin-4-yl)ethyl]urea]
7 | < 500 nM | < 500 nM | < 500 nM |  | CC(Oc1ccc2nc(NC(=O)NCCN3CCOCC3)sc2c1)c1c(Cl)ccc(F)c1Cl (stereo not drawn) [Example 24, 1-{6-[1-(2,6-dichloro-3-fluorophenyl)ethoxy]-1,3-benzothiazol-2-yl}-3-(2-morpholin-4-ylethyl)urea]
8 | < 500 nM | 500 to 10000 nM |  | 500 to 10000 nM | C[C@@H](Oc1cc2sc(NC(=O)NCCN3CCOCC3)nc2cc1F)c1c(Cl)ccc(F)c1Cl (single isomer, unassigned) [Example 33, 1-{6-[(1R)-(2,6-dichloro-3-fluorophenyl)ethoxy]-5-fluoro-1,3-benzothiazol-2-yl}-3-(2-morpholin-4-ylethyl)urea or 1-{6-[(1S)-(2,6-dichloro-3-fluorophenyl)ethoxy]-5-fluoro-1,3-benzothiazol-2-yl}-3-(2-morpholin-4-ylethyl)urea]
